Experimental data as given in paper PMC10425210 (The Journal of Clinical Investigation, 2023).
“And” between values parts separate entries of the source, which are not always exact repeats. Equal entries are not always repeated. “Also recorded” adds a separate entry of the source. Where two headings read alike, the source gives them in different places.

Experiments:
SHIV-SF162P3 = format: in vivo, rhesus macaques
HIV-1 = tested on: HIV-1; parameters: method as in ref 11 = [11]; PMID 32612233; doi:10.1038/s41586-020-2443-1; 11 Link JO et al Clinical targeting of HIV capsid protein with a long-acting small molecule Nature 2020 584 7822 614 618 10.1038/s41586-020-2443-1 32612233 PMC8188729; conditions: cited from earlier work
[1] = cited from earlier work
[2] = through week 52 of treatment across clinical studies; cited from earlier work
[3] = 927 mg sc twice-yearly after 600 mg oral on days 1 and 2

CC(C)(C#Cc1ccc(-c2ccc(Cl)c3c(NS(C)(=O)=O)nn(CC(F)(F)F)c23)c([C@H](Cc2cc(F)cc(F)c2)NC(=O)Cn2nc(C(F)(F)F)c3c2C(F)(F)[C@@H]2C[C@H]32)n1)S(C)(=O)=O [LEN, Lenacapavir]
Plasma SHIV RNA (SHIV-SF162P3; animal V430, 50 mg/kg, week 1 post challenge): 62 copies per mL | Plasma SHIV RNA (SHIV-SF162P3; animal V430, 50 mg/kg, week 2 post challenge): 62 copies per mL | Plasma SHIV RNA (SHIV-SF162P3; animal V430, 50 mg/kg, week 3 post challenge): 62 copies per mL | Plasma SHIV RNA (SHIV-SF162P3; animal V430, 50 mg/kg, week 4 post challenge): 62 copies per mL | Plasma SHIV RNA (SHIV-SF162P3; animal V430, 50 mg/kg, week 5 post challenge): 62 copies per mL | Plasma SHIV RNA (SHIV-SF162P3; animal V430, 50 mg/kg, week 6 post challenge): 62 copies per mL | Plasma SHIV RNA (SHIV-SF162P3; animal V430, 50 mg/kg, week 7 post challenge): 62 copies per mL | Plasma SHIV RNA (SHIV-SF162P3; animal V430, 50 mg/kg, week 8 post challenge): 62 copies per mL | Plasma SHIV RNA (SHIV-SF162P3; animal V430, 50 mg/kg, week 9 post challenge): 62 copies per mL | Plasma SHIV RNA (SHIV-SF162P3; animal V430, 50 mg/kg, week 10 post challenge): 62 copies per mL | Plasma SHIV RNA (SHIV-SF162P3; animal V430, 50 mg/kg, week 11 post challenge): 62 copies per mL | Plasma SHIV RNA (SHIV-SF162P3; animal V430, 50 mg/kg, week 12 post challenge): 62 copies per mL | Plasma SHIV RNA (SHIV-SF162P3; animal V430, 50 mg/kg, week 13 post challenge): 62 copies per mL | Plasma SHIV RNA (SHIV-SF162P3; animal V430, 50 mg/kg, week 14 post challenge): 62 copies per mL | Plasma SHIV RNA (SHIV-SF162P3; animal V430, 50 mg/kg, week 15 post challenge): 62 copies per mL | Plasma SHIV RNA (SHIV-SF162P3; animal V430, 50 mg/kg, week 16 post challenge): 62 copies per mL | Plasma SHIV RNA (SHIV-SF162P3; animal V430, 50 mg/kg, week 17 post challenge): 62 copies per mL | Plasma SHIV RNA (SHIV-SF162P3; animal V430, 50 mg/kg, week 18 post challenge): 62 copies per mL | Challenge outcome (SHIV-SF162P3; animal V435, 75 mg/kg): Infected | Intact SHIV DNA / 10M PBMC (SHIV-SF162P3; animal V435, 75 mg/kg, Wk 2 post challenge): 1890.13 / 10M PBMC | Plasma SHIV RNA (SHIV-SF162P3; animal V435, 75 mg/kg, week 0 post challenge): 62 copies per mL | Plasma SHIV RNA (SHIV-SF162P3; animal V435, 75 mg/kg, week 1 post challenge): 62 copies per mL | Plasma SHIV RNA (SHIV-SF162P3; animal V435, 75 mg/kg, week 2 post challenge): 756278 copies per mL | Plasma SHIV RNA (SHIV-SF162P3; animal V435, 75 mg/kg, week 6 post challenge): 242042 copies per mL | Plasma SHIV RNA (SHIV-SF162P3; animal V435, 75 mg/kg, week 7 post challenge): 286179 copies per mL | Plasma SHIV RNA (SHIV-SF162P3; animal V435, 75 mg/kg, week 9 post challenge): 32896 copies per mL | Plasma SHIV RNA (SHIV-SF162P3; animal V435, 75 mg/kg, week 10 post challenge): 40477 copies per mL | Plasma SHIV RNA (SHIV-SF162P3; animal V435, 75 mg/kg, week 11 post challenge): 31394 copies per mL | Plasma SHIV RNA (SHIV-SF162P3; animal V435, 75 mg/kg, week 12 post challenge): 7502 copies per mL | Plasma SHIV RNA (SHIV-SF162P3; animal V435, 75 mg/kg, week 13 post challenge): 16622 copies per mL | Plasma SHIV RNA (SHIV-SF162P3; animal V435, 75 mg/kg, week 14 post challenge): 6647 copies per mL | Plasma SHIV RNA (SHIV-SF162P3; animal V435, 75 mg/kg, week 15 post challenge): 46117 copies per mL | Plasma SHIV RNA (SHIV-SF162P3; animal V435, 75 mg/kg, week 16 post challenge): 21357 copies per mL | Plasma SHIV RNA (SHIV-SF162P3; animal V435, 75 mg/kg, week 17 post challenge): 55828 copies per mL | Plasma SHIV RNA (SHIV-SF162P3; animal V435, 75 mg/kg, week 18 post challenge): 34073 copies per mL | Plasma SHIV RNA (SHIV-SF162P3; animal V435, 75 mg/kg, week 19 post challenge): 913 copies per mL | Plasma SHIV RNA (SHIV-SF162P3; animal V435, 75 mg/kg, week 20 post challenge): 62 copies per mL | Challenge outcome (SHIV-SF162P3; animal V470, 50 mg/kg): Not infected | Intact SHIV DNA / 10M PBMC (SHIV-SF162P3; animal V470, 50 mg/kg, Wk 2 post challenge): 1 / 10M PBMC | Intact SHIV DNA / 10M PBMC (SHIV-SF162P3; animal V470, 50 mg/kg, Wk 10 post challenge): 1 / 10M PBMC | Plasma SHIV RNA (SHIV-SF162P3; animal V470, 50 mg/kg, week 0 post challenge): 62 copies per mL | Plasma SHIV RNA (SHIV-SF162P3; animal V470, 50 mg/kg, week 1 post challenge): 62 copies per mL | Plasma SHIV RNA (SHIV-SF162P3; animal V470, 50 mg/kg, week 2 post challenge): 62 copies per mL | Plasma SHIV RNA (SHIV-SF162P3; animal V470, 50 mg/kg, week 3 post challenge): 62 copies per mL | Plasma SHIV RNA (SHIV-SF162P3; animal V470, 50 mg/kg, week 4 post challenge): 62 copies per mL | Plasma SHIV RNA (SHIV-SF162P3; animal V470, 50 mg/kg, week 5 post challenge): 62 copies per mL | Plasma SHIV RNA (SHIV-SF162P3; animal V470, 50 mg/kg, week 6 post challenge): 62 copies per mL | Plasma SHIV RNA (SHIV-SF162P3; animal V470, 50 mg/kg, week 7 post challenge): 62 copies per mL | Plasma SHIV RNA (SHIV-SF162P3; animal V470, 50 mg/kg, week 8 post challenge): 62 copies per mL | Plasma SHIV RNA (SHIV-SF162P3; animal V470, 50 mg/kg, week 9 post challenge): 62 copies per mL | Plasma SHIV RNA (SHIV-SF162P3; animal V470, 50 mg/kg, week 10 post challenge): 62 copies per mL | Plasma SHIV RNA (SHIV-SF162P3; animal V470, 50 mg/kg, week 11 post challenge): 62 copies per mL | Plasma SHIV RNA (SHIV-SF162P3; animal V470, 50 mg/kg, week 12 post challenge): 62 copies per mL | Plasma SHIV RNA (SHIV-SF162P3; animal V470, 50 mg/kg, week 13 post challenge): 62 copies per mL | Plasma SHIV RNA (SHIV-SF162P3; animal V470, 50 mg/kg, week 14 post challenge): 62 copies per mL | Plasma SHIV RNA (SHIV-SF162P3; animal V470, 50 mg/kg, week 15 post challenge): 62 copies per mL | Plasma SHIV RNA (SHIV-SF162P3; animal V470, 50 mg/kg, week 16 post challenge): 62 copies per mL | Plasma SHIV RNA (SHIV-SF162P3; animal V470, 50 mg/kg, week 17 post challenge): 62 copies per mL | Plasma SHIV RNA (SHIV-SF162P3; animal V470, 50 mg/kg, week 18 post challenge): 62 copies per mL | reduction of the rate of infection per exposure (SHIV-SF162P3; compared with the untreated group): more than 2 fold | intact proviral DNA assay (IPDA) signal (SHIV-SF162P3; eight SHIV-negative animals, weeks 2 and 10): No signal was detected | Peak Plasma SHIV RNA (SHIV-SF162P3; individual LEN-dosed infected animals): 299412 copies/mL and 1140343 copies/mL and 35193943 copies/mL | animals viremic after challenge (SHIV-SF162P3; of 11 LEN-dosed animals, 100 TCID50, 2 weeks after challenge): 3 animals | anti-capsid (p27) antibody ELISA (SHIV-SF162P3; other 8 animals, through week 10 after challenge): no antibodies were detectable | LEN-dosed animals with confirmed uninfected status (SHIV-SF162P3; plasma PCR, serology, IPDA): 8 of 11 | Challenge outcome (SHIV-SF162P3; rhesus monkey, in vivo): Not infected | Intact SHIV DNA / 10M PBMC (SHIV-SF162P3; rhesus monkey, in vivo): 1 / 10M PBMC | Plasma SHIV RNA (SHIV-SF162P3; rhesus monkey, in vivo): 62 copies per mL | resistance emergence, capsid sequence of plasma virus (SHIV-SF162P3; rhesus monkey, in vivo): no emerging mutations in capsid; also recorded: No resistance was selected | peak viremia, LEN-dosed infected vs untreated animals (SHIV-SF162P3; same viral inoculum): no significant differences | EC50 (HIV-1; 23 HIV-1 clinical isolates, mitogen-activated human PBMCs, 7-day assay): 0.05 ± 0.03 nM | EC95 (HIV-1; 23 HIV-1 isolates, human PBMCs): 0.12 nM and 0.12 ± 0.07 nM | time to reach efficacious target concentration after injection ([1]; 927 mg sc after oral lead-in): ≤ 2 h | efficacious target plasma concentration [1, 3]: 15.5 ng/mL | efficacious target plasma concentration (human target Ctrough) [1, 3]: 16 nM | serious adverse events or laboratory abnormalities [2]: no serious adverse events or laboratory abnormalities related to LEN
